Measured values from patent US12577206B2 (BRISTOL-MYERS SQUIBB COMPANY, priority 2020, dated 2026).

What was measured:
[1] = target: T1, human FPR1 (Homo sapiens, UniProt P21462); experiment: FPR1 cyclic adenosine monophosphate (cAMP) assay; format: cell-based; settings: CHO cells overexpressing human FPR1; forskolin 10 μM; inhibition of cAMP production; HTRF; read-out: hFPR1 cAMP2 EC50
T1 sequence (P21462 1-350): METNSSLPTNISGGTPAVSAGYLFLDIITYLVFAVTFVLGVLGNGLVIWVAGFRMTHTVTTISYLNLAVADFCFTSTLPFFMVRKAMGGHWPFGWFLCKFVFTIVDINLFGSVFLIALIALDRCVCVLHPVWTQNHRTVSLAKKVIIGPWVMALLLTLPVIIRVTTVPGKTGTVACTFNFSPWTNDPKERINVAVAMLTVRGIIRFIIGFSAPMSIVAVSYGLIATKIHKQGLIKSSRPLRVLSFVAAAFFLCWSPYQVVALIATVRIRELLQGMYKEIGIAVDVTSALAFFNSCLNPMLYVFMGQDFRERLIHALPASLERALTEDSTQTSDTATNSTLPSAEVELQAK
Outline: (§1)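 Inhibition of forskolin-stimulated cAMP (final forskolin 5 μM for FPR2, 10 μM for FPR1; IBMX 200 μM) was measured by HTRF in recombinant CHO cells after 30 min at room temperature.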

[2] = target: T2, human FPR2 (Homo sapiens, UniProt P25090); experiment: FPR2 cyclic adenosine monophosphate (cAMP) assay; format: cell-based; settings: CHO cells overexpressing human FPR2; forskolin 5 μM; inhibition of cAMP production; HTRF; read-out: hFPR2 cAMP2 EC50
T2 sequence (P25090 1-351): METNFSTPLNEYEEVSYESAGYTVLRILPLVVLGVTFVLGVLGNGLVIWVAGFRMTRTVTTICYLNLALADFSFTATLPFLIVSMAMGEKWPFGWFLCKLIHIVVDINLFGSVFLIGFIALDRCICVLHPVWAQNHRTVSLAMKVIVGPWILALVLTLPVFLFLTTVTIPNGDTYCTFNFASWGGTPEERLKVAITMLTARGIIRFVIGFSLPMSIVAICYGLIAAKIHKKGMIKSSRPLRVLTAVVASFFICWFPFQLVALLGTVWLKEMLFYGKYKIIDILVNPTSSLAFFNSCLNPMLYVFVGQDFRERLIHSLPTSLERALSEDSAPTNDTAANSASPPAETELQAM
Outline: as §1

SMILES	EC50 [1] [nM]	EC50 [2] [nM]
COc1cc(F)c(-c2c(NC(=O)c3ccc(OC(F)F)cc3)c(=O)n(-c3nc(N4CC[C@@H](CO)C4)ccc3C(F)(F)F)n2C)c(F)c1 [Example 292, N-[5-(2,6-difluoro-4-methoxyphenyl)-2-{6-[(3R)-3-(hydroxymethyl)pyrrolidin-1-yl]-3-(trifluoromethyl)pyridin-2-yl}-1-methyl-3-oxo-2,3-dihydro-1H-pyrazol-4-yl]-4-(difluoromethoxy)benzamide]	4100	2
COc1cc(F)c(-c2c(NC(=O)c3ccc(OC(F)F)cc3)c(=O)n(-c3nc(C(C)(C)O)ccc3C(F)(F)F)n2C)c(F)c1 [Example 275, N-[5-(2,6-difluoro-4-methoxyphenyl)-2-[6-(2-hydroxypropan-2-yl)-3-(trifluoromethyl)pyridin-2-yl]-1-methyl-3-oxo-2,3-dihydro-1H-pyrazol-4-yl]-4-(difluoromethoxy)benzamide]	> 10000	5
COc1cc(F)c(-c2c(NC(=O)c3ccc(OC(F)F)cc3)c(=O)n(-c3nc(N(C4CC4)C4CC4)ccc3C(F)(F)F)n2C)c(F)c1 [Example 267, N-{2-[6-(dicyclopropylamino)-3-(trifluoromethyl)pyridin-2-yl]-5-(2,6-difluoro-4-methoxyphenyl)-1-methyl-3-oxo-2,3-dihydro-1H-pyrazol-4-yl}-4-(difluoromethoxy)benzamide]	7100	2
CNc1ccc(Cl)nc1-n1c(=O)c(NC(=O)c2ccc(OC(F)F)cc2)c(-c2c(F)cc(OC)cc2F)n1C [Example 215, N-{2-[6-chloro-3-(methylamino)pyridin-2-yl]-5-(2,6-difluoro-4-methoxyphenyl)-1-methyl-3-oxo-2,3-dihydro-1H-pyrazol-4-yl}-4-(difluoromethoxy)benzamide]	> 10000	5
COc1cc(F)c(-c2c(NC(=O)c3ccc(OC(F)F)cc3)c(=O)n(-c3nc(Cl)ccc3N(C)C)n2C)c(F)c1 [Example 209, N-{2-[6-chloro-3-(dimethylamino)pyridin-2-yl]-5-(2,6-difluoro-4-methoxyphenyl)-1-methyl-3-oxo-2,3-dihydro-1H-pyrazol-4-yl}-4-(difluoromethoxy)benzamide]	> 10000	3
COc1cc(F)c(-c2c(NC(=O)c3ccc(OC(F)F)cc3)c(=O)n(-c3nc(N4CCC(C(N)=O)C4)ccc3C(F)(F)F)n2C)c(F)c1 (centres unmarked) [Example 303, 1-{6-[3-(2,6-difluoro-4-methoxyphenyl)-4-[4-(difluoromethoxy)benzamido]-2-methyl-5-oxo-2,5-dihydro-1H-pyrazol-1-yl]-5-(trifluoromethyl)pyridin-2-yl}pyrrolidine-3-carboxamide]	> 10000	1
COc1cc(F)c(-c2c(NC(=O)c3ccc(OC(F)F)cc3)c(=O)n(-c3nc(N4CCC[C@H]4CO)ccc3C(F)(F)F)n2C)c(F)c1 [Example 258, N-[5-(2,6-difluoro-4-methoxyphenyl)-2-{6-[(2S)-2-(hydroxymethyl)pyrrolidin-1-yl]-3-(trifluoromethyl)pyridin-2-yl}-1-methyl-3-oxo-2,3-dihydro-1H-pyrazol-4-yl]-4-(difluoromethoxy)benzamide]	> 5000	9
COc1cc(F)c(-c2c(NC(=O)c3ccc(OC(F)F)cc3)c(=O)n(-c3nc(N4CCC(C)(O)CC4)ccc3C(F)(F)F)n2C)c(F)c1 [Example 314, N-[5-(2,6-difluoro-4-methoxyphenyl)-2-[6-(4-hydroxy-4-methylpiperidin-1-yl)-3-(trifluoromethyl)pyridin-2-yl]-1-methyl-3-oxo-2,3-dihydro-1H-pyrazol-4-yl]-4-(difluoromethoxy)benzamide]	2700	1
COc1cc(F)c(-c2c(NC(=O)c3ccc(OC(F)F)cc3)c(=O)n(-c3cccc(OCCO)n3)n2C)c(F)c1 [Example 333, N-(5-(2,6-Difluoro-4-methoxyphenyl)-2-(6-(2-hydroxyethoxy)pyridin-2-yl)-1-methyl-3-oxo-2,3-dihydro-1H-pyrazol-4-yl)-4-(difluoromethoxy)benzamide]	1300	14
COc1cc(F)c(-c2c(NC(=O)c3ccc(OC(F)F)cc3)c(=O)n(-c3nc(N4CC(O)C4)ccc3Cl)n2C)c(F)c1 [Example 300, N-{2-[3-chloro-6-(3-hydroxyazetidin-1-yl)pyridin-2-yl]-5-(2,6-difluoro-4-methoxyphenyl)-1-methyl-3-oxo-2,3-dihydro-1H-pyrazol-4-yl}-4-(difluoromethoxy)benzamide]	> 5000	7
COc1cc(OCCS(C)(=O)=O)nc(-n2c(=O)c(NC(=O)c3ccc(OC(F)F)cc3)c(-c3c(F)cc(OC)cc3F)n2C)c1 [Example 335, N-(5-(2,6-Difluoro-4-methoxyphenyl)-2-(4-methoxy-6-(2-(methylsulfonyl)ethoxy)pyridin-2-yl)-1-methyl-3-oxo-2,3-dihydro-1H-pyrazol-4-yl)-4-(difluoromethoxy)benzamide]	> 10000	3
COc1cc(F)c(-c2c(NC(=O)c3ccc(OC(F)F)cc3)c(=O)n(-c3nc(N(C)CC(C)(C)O)ccc3C(F)(F)F)n2C)c(F)c1 [Example 261, N-[5-(2,6-difluoro-4-methoxyphenyl)-2-{6-[(2-hydroxy-2-methylpropyl)(methyl)amino]-3-(trifluoromethyl)pyridin-2-yl}-1-methyl-3-oxo-2,3-dihydro-1H-pyrazol-4-yl]-4-(difluoromethoxy)benzamide]	> 5000	2
COc1cc(F)c(-c2c(NC(=O)c3ccc(OC(F)F)cc3)c(=O)n(-c3nc(N4C5CCC4CN(C)C5)ccc3C(F)(F)F)n2C)c(F)c1 [Example 137, N-[5-(2,6-difluoro-4-methoxyphenyl)-1-methyl-2-(6-{3-methyl-3,8-diazabicyclo[3.2.1]octan-8-yl}-3-(trifluoromethyl)pyridin-2-yl)-3-oxo-2,3-dihydro-1H-pyrazol-4-yl]-4-(difluoromethoxy)benzamide]	7100	16
COc1cc(F)c(-c2c(NC(=O)c3ccc(OC(F)F)cc3)c(=O)n(-c3cccc(N4CC(C)(C)C4)n3)n2C)c(F)c1 [Example 218, N-[5-(2,6-difluoro-4-methoxyphenyl)-2-[6-(3,3-dimethylazetidin-1-yl)pyridin-2-yl]-1-methyl-3-oxo-2,3-dihydro-1H-pyrazol-4-yl]-4-(difluoromethoxy)benzamide]	1500	21
CCc1cccc(-n2c(=O)c(NC(=O)c3ccc(OC(F)F)cc3)c(-c3c(F)cc(OC)cc3F)n2C)n1 [Example 163, N-[5-(2,6-difluoro-4-methoxyphenyl)-2-(6-ethylpyridin-2-yl)-1-methyl-3-oxo-2,3-dihydro-1H-pyrazol-4-yl]-4-(difluoromethoxy)benzamide]	> 10000	4
COc1cc(F)c(-c2c(NC(=O)c3ccc(OC(F)F)cc3)c(=O)n(-c3cccc(C4CC4)c3)n2C)c(F)c1 [Example 111, N-[2-(3-cyclopropylphenyl)-5-(2,6-difluoro-4-methoxyphenyl)-1-methyl-3-oxo-2,3-dihydro-1H-pyrazol-4-yl]-4-(difluoromethoxy)benzamide]	2	4
